Inconclusive results and toxic doses are left out.
Tested on: CD2F1 mice, L1210 leukemia ip, survival T/C
Assay: NCI In Vivo Anticancer Drug Screen. Data for tumor model L1210 Leukemia (intraperitoneal) in CD2F1 (CDF1) mice
Conditions: higher = longer survival
Outline: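 Each value reflects a quotient of treated over vehicle control outcomes in mice with a transplanted tumor.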

[1] = endpoint: mean survival time, dose: 100.0 mg/kg/injection, schedule: Q01DX009 (ip), vehicle: saline with Tween-80
[2] = endpoint: mean survival time, dose: 200.0 mg/kg/injection, schedule: Q01DX009 (ip), vehicle: saline with Tween-80
[3] = endpoint: mean survival time, dose: 400.0 mg/kg/injection, schedule: Q01DX009 (ip), vehicle: saline with Tween-80

Q: With C/C(=N\N=C(/C)c1cccs1)c1cccs1 as the compound, how does the T/C (endpoint: median survival time, dose: 25.0 mg/kg/injection, schedule: Q04DX002 (ip), vehicle: saline with Tween-80) read?
A: 90 % of control

Q: And the T/C (endpoint: median survival time, dose: 50.0 mg/kg/injection, schedule: Q04DX002 (ip), vehicle: saline with Tween-80)?
A: 90 % of control

Q: And the T/C (endpoint: median survival time, dose: 100.0 mg/kg/injection, schedule: Q04DX002 (ip), vehicle: saline with Tween-80)?
A: 100 % of control

Q: What about the T/C (endpoint: median survival time, dose: 200.0 mg/kg/injection, schedule: Q04DX002 (ip), vehicle: saline with Tween-80) of the same compound?
A: 90 % of control

Q: Which results are given for C[NH-].C[NH-].[Br][Pt+2][Br]?
A: T/C (endpoint: mean survival time, dose: 1.25 mg/kg/injection, schedule: Q04DX003 (ip), vehicle: water): 106 % of control; T/C (endpoint: mean survival time, dose: 2.5 mg/kg/injection, schedule: Q04DX003 (ip), vehicle: water): 108 % of control; T/C (endpoint: mean survival time, dose: 5.0 mg/kg/injection, schedule: Q04DX003 (ip), vehicle: water): 110 % of control; T/C (endpoint: mean survival time, dose: 10.0 mg/kg/injection, schedule: Q04DX003 (ip), vehicle: water): 97 % of control

Q: What does the source list for O=C1CCC2=C(CCC3(C2)OCCO3)N1?
A: T/C [1]: 94 % of control; T/C (endpoint: mean survival time, dose: 100.0 mg/kg/injection, schedule: Q04DX003 (ip), vehicle: saline): 96 % of control; T/C [2]: 102 % of control; T/C (endpoint: mean survival time, dose: 200.0 mg/kg/injection, schedule: Q04DX003 (ip), vehicle: saline): 103 % of control; T/C [3]: 90 % of control; T/C (endpoint: mean survival time, dose: 400.0 mg/kg/injection, schedule: Q04DX003 (ip), vehicle: saline): 100 % of control

Q: What does the source list for O=C1c2ccccc2C(O)(c2[nH]nc3ccccc23)N1c1ccccc1 (stereo not given)?
A: T/C (endpoint: mean survival time, dose: 50.0 mg/kg/injection, schedule: Q04DX002 (ip), vehicle: saline with Tween-80): 103 % of control; T/C (endpoint: mean survival time, dose: 100.0 mg/kg/injection, schedule: Q04DX002 (ip), vehicle: saline with Tween-80): 103 % of control; T/C (endpoint: mean survival time, dose: 200.0 mg/kg/injection, schedule: Q04DX002 (ip), vehicle: saline with Tween-80): 113 % of control; T/C (endpoint: mean survival time, dose: 400.0 mg/kg/injection, schedule: Q04DX002 (ip), vehicle: saline with Tween-80): 106 % of control

Q: With COC(=O)C(C)C1CCC2C3=CC=C4CC(OC(C)=O)CCC4(C)C3=CCC21C (stereo not given) as the compound, how does the T/C (endpoint: mean survival time, dose: 100.0 mg/kg/injection, schedule: Q01DX001 (ip), vehicle: Klucel (hydroxypropylcellulose) (HPC)) read?
A: 98 % of control

Q: And the T/C (endpoint: mean survival time, dose: 200.0 mg/kg/injection, schedule: Q01DX001 (ip), vehicle: Klucel (hydroxypropylcellulose) (HPC))?
A: 92 % of control

Q: And the T/C (endpoint: mean survival time, dose: 400.0 mg/kg/injection, schedule: Q01DX001 (ip), vehicle: Klucel (hydroxypropylcellulose) (HPC))?
A: 92 % of control

Q: For CCC/C(C)=N/Nc1ccc([N+](=O)[O-])cc1, which T/C [1] is on record?
A: 94 % of control

Q: And the T/C (endpoint: mean survival time, dose: 100.0 mg/kg/injection, schedule: Q04DX003 (ip), vehicle: saline with Tween-80)?
A: 95 % of control

Q: And the T/C [2]?
A: 100 % of control

Q: And the T/C (endpoint: mean survival time, dose: 200.0 mg/kg/injection, schedule: Q04DX003 (ip), vehicle: saline with Tween-80)?
A: 97 % of control

Q: And the T/C [3]?
A: 94 % of control

Q: What about the T/C (endpoint: mean survival time, dose: 400.0 mg/kg/injection, schedule: Q04DX003 (ip), vehicle: saline with Tween-80) of the same compound?
A: 93 % of control

Q: What does the source list for COC(OC(CO)C(O)S(=O)(=O)O)C(O)S(=O)(=O)O (stereo not given)?
A: T/C (endpoint: mean survival time, dose: 50.0 mg/kg/injection, schedule: Q01DX001 (ip), vehicle: saline): 103 % of control; T/C (endpoint: mean survival time, dose: 50.0 mg/kg/injection, schedule: Q01DX009 (ip), vehicle: saline): 124 % of control; T/C (endpoint: mean survival time, dose: 50.0 mg/kg/injection, schedule: Q01DX009 (sc), vehicle: saline): 104 % of control; T/C (endpoint: mean survival time, dose: 50.0 mg/kg/injection, schedule: Q03HX016 (ip), vehicle: saline): 115 % of control; T/C (endpoint: mean survival time, dose: 100.0 mg/kg/injection, schedule: Q01DX001 (ip), vehicle: saline): 118 % of control; T/C (endpoint: mean survival time, dose: 100.0 mg/kg/injection, schedule: Q01DX009 (oral), vehicle: saline): 105 % of control; T/C (endpoint: mean survival time, dose: 100.0 mg/kg/injection, schedule: Q01DX009 (sc), vehicle: saline): 101 % of control; T/C (endpoint: mean survival time, dose: 100.0 mg/kg/injection, schedule: Q03HX008 (ip), vehicle: saline): 160 % of control; T/C (endpoint: mean survival time, dose: 100.0 mg/kg/injection, schedule: Q03HX016 (ip), vehicle: saline): 153 % of control; T/C (endpoint: mean survival time, dose: 100.0 mg/kg/injection, schedule: Q08DX002 (ip), vehicle: saline): 109 % of control; T/C (endpoint: mean survival time, dose: 200.0 mg/kg/injection, schedule: Q01DX009 (oral), vehicle: saline): 92 % of control; T/C (endpoint: mean survival time, dose: 200.0 mg/kg/injection, schedule: Q01DX009 (sc), vehicle: saline): 101 % of control; T/C (endpoint: mean survival time, dose: 200.0 mg/kg/injection, schedule: Q08DX002 (ip), vehicle: saline): 120 % of control; T/C (endpoint: mean survival time, dose: 400.0 mg/kg/injection, schedule: Q01DX009 (ip), vehicle: saline): 168 % of control; T/C (endpoint: mean survival time, dose: 400.0 mg/kg/injection, schedule: Q01DX009 (oral), vehicle: saline): 94 % of control; T/C (endpoint: mean survival time, dose: 400.0 mg/kg/injection, schedule: Q01DX009 (sc), vehicle: saline): 106 % of control; T/C (endpoint: mean survival time, dose: 800.0 mg/kg/injection, schedule: Q01DX009 (oral), vehicle: saline): 94 % of control; T/C (endpoint: mean survival time, dose: 800.0 mg/kg/injection, schedule: Q04DX003 (ip), vehicle: saline): 178 % of control

— PubChem BioAssay AID256 (DTP/NCI, 2004)
